Where two headings read alike, the source gives them in different places.
How the values were obtained:
L929 = assay: MTT cytotoxicity assay, L929 fibroblasts (and selectivity index); assay type: cell-based, mouse; details: for SI (selectivity index): IC50 L929 divided by average IC50 of the breast cancer cell lines; for IC50: MTT
Method: The cytotoxicity of 1–11CA was assessed against human breast cancer MCF-7 and MDA-MB-231 cells, and non-tumorigenic adherent mouse fibroblast connective tissue L929 cells using the MTT assay after 24 and 72 h (Tables S5 ^† and Table 1, respectively).
Then, necessary dilutions were made using the supplement DMEM, to prepare the range of tested concentrations. Since DMSO was used to solubilize the compounds, a supplemented DMEM + DMSO (at the same percentage as in the sequential dilutions) was considered as a control in the 3-[4,5-dimetylthiazole-2-yl]-2,5-diphenyltetrazolium bromide (MTT) assay.
L929, MCF-7, and MDA-MB-231 cell lines were cultured in DMEM supplemented with 10% (v/v) FBS and 1% (v/v) of penicillin–streptomycin. The cells were incubated in a humidified chamber at 37 °C under saturated air with a 5% CO2 atmosphere. Cells were passed at 80%–90% of confluency with 0.25% (w/v) trypsin and the cell culture media was changed every 2–3 days.
The compounds were tested on two breast cancer cell lines (MCF-7 and MDA-MB-231) and L929 fibroblasts, used as a reference for the safety evaluation according to ISO 10993-1:2009 “Biological evaluation of medical devices”. Cells were seeded on sterile 96-well plates at 50 000 cells per well (L929) and 20 000 cells per well (MCF-7 and MDA-MB-231) in supplemented DMEM medium (100 μL) for 24 h. The culture medium was removed and new media containing different concentrations of the compounds (0–1000 μM) was added to the wells (100 μL). Control cells were incubated under the same conditions in the absence of a compound. Cells were incubated for 24 and 72 h under the same conditions described above. Then, the medium was removed, and the cells were incubated with 3-(4,5-dimethylthiazol-2-yl)-2,5-diphenyltetrazolium bromide (MTT; 0.5 mg mL^−1) for 3 h. After this time, the medium was removed, and formazan crystals were solubilized with DMSO (100 μL per well). The absorbance in each well was read on a SynergyTM HT Multimode microplate reader (BioTek Instruments; Winooski, VT, USA) at 570 and 630 nm (for background correction), and the cell viability was calculated according to the following equation (eqn (1)):1 [drawing 3] where OD570(sample) and OD630(sample) are the optical densities of the solutions containing the compounds and OD570(control) and OD630(control) are controls without compound.
Each apoptosis value determination represents the mean ± standard deviation of 2 independent assays. The IC50 values were obtained using GraphPad Prism software and ANOVA (analysis of variance) was performed to determine the statistical difference between the IC50 values of different cell lines.

[1] = Molar conductivity in acetonitrile; assay type: physicochemical; details: 1 mM in acetonitrile, 25 °C
Method: The molar conductivity (ΛM, reported as S·cm2·mol–1) of solutions of 11CA in acetonitrile (1 mM) were measured in a Radiometer Copenhagen CDM92 equipped with a conductivity cell CDC641T glass platinum electrode at room temperature (25 °C). The conductivity of the pure solvent was used as standard controls.
Table S3. Solubility in water at 25 °C, n-octanol/water partition coefficient and molar conductivity of the 11CA. * below limit of detection = 5 ppt.

pBR322 DNA = test system: pBR322 DNA
Method: The interaction of 11Cl with plasmid DNA was also assessed by visualizing the relaxation of the plasmid using agarose gel electrophoresis (Fig. 4). Different concentrations of the 11Cl were incubated with pBR322 DNA at 37 °C for 24 h and then analyzed by gel electrophoresis (Fig. 4).
Assays were performed using 1.2% (w/v) agarose gels. A plasmid pBR322 DNA was purchased from Thermofisher Scientific® at 0.5 μg μL^−1 concentration in phosphate buffer 50 mM (pH 7.4). A 20 μL portion containing 0.125 μg μL^−1 of DNA in 10 mM Tris-HCl (pH 7.6) and 1 mM EDTA was incubated with increasing volumes of the stock solution of 11Cl (1 mM in DMSO) at ri values ranging from 0.05 to 0.5 (ri = [complex]/[no. nucleotide]). […] 20 μL of the sample was loaded in the agarose gel (1.2% w/v), and electrophoresis was carried out for a period of 100 min at 40 V in TAE 1× (Tris-acetate/EDTA) buffer. After electrophoresis, the gel was immersed in 200 mL of TAE 1× buffer containing 20 μL of a stock solution of SYBR safe for 30 min to stain the DNA. Then, the gel was washed with Mili Q water for 10 min and the stained gel was analyzed with a blue light in a Safe Imager™ 2.0 (Invitrogen).

[2] = test system: 14-mer ssDNA 5′–3′ (ATACATGGTACATA); details: 3 : 1 ratio, 37 °C, 24 h
Method: (§1) Tandem mass spectrometry was used to investigate the binding mode interaction of 11Cl with single- (ss) and double-strand (ds) DNA oligomers.[77,78]
(§2) 11Cl was incubated with 14-mer ssDNA 5′–3′ ([…]) and 6-mer dsDNA 5′–3′ (AGGCAG) in a 3 : 1 ratio at 37 °C in MilliQ water. After 24 h the solution was centrifuged with an Amicon® Ultra 0.5 mL centrifugal filter 3 kDa MWCO to remove the unreacted metal complex and excess salts.

[3] = test system: 6-mer dsDNA 5′–3′ (AGGCAG); details: 3 : 1 ratio, 37 °C, 24 h
Method: as §1, §2

[4] = Stability in solution (ESI-MS, NMR); details: 1 mM
Method: The stability of 11CA under pseudo-physiological conditions was assessed using ESI-MS and ^1H and ^31P NMR spectroscopy.
Stability studies were performed on 11CA over 72 h at 37 °C.
The stability of 11Cl was also monitored over
72 h via 1H and 31P NMR spectroscopy. The complex was fully dissolved in d6-DMSO,
diluted with D2O to reach 10% d6-DMSO in D2O (1 mM final concentration) and, finally,
the pD was adjusted to 7.2 ± 0.1 (neutral conditions). Furthermore, the stability of 11Cl
and 11BPh4 was also assessed in 100% d6-DMSO (1 mM final concentration) as a highly

[5] = target: bovine serum albumin (BSA) (Bos taurus, UniProt P02769); assay: BSA binding assay (tryptophan fluorescence quenching)
Chain of bovine serum albumin (BSA) (P02769 25-607): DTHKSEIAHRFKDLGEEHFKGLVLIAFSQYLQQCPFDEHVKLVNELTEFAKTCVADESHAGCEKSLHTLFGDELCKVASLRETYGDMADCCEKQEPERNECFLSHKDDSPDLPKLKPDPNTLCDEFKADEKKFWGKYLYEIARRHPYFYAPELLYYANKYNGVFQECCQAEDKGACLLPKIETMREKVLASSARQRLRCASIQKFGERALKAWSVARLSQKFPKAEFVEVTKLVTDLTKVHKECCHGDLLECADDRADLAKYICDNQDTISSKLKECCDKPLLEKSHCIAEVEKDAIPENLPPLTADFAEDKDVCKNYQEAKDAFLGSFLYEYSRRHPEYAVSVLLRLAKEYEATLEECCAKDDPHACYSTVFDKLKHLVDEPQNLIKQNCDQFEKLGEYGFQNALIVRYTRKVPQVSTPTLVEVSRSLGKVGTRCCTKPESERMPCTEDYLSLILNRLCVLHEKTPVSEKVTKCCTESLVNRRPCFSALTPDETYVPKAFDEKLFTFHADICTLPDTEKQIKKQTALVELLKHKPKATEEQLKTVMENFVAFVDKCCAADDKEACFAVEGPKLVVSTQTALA
Method: BSA (16 μM) in 10 mM Tris-HCl pH 7.6 + 1 mM EDTA solution and varying concentrations of 11Cl (0–32 μM) were incubated at 37 °C for 24 h. Afterward, the fluorescence spectra were measured for each solution between 300 and 500 nm (λex = 280 nm). The intensity at λmax (340 nm) was recorded.

ct-DNA = assay: Competitive DNA binding assay with fluorescent probes (DAPI, MG, PI)
Method: From the obtained fluorescence data, apparent DNA binding constants, Kapp, were calculated according to the competitive binding model described by Tse and Boger.[66]
Emission intensity measurements were performed using a SpectraMax M5e reader at room temperature. A 50 μM (bp) of ct-DNA was pre-incubated with the groove binding agents (MG and DAPI) (2 μM) and the intercalating agent propidium iodide (2 μM) for 30 min at 37 °C, to allow full interaction of the dyes into the ctDNA. Increasing amounts of 11Cl (0–100 μM) were added to this mixture and the final samples were incubated for 24 h at 37 °C. After incubation, the emission spectra were recorded at excitations of 633, 358, and 535 nm for the measurements of MG, DAPI, and PI, respectively. Quenching parameters were obtained by applying the Stern–Volmer equation (eqn (2)). The apparent binding constants, Kapp, were calculated according to the competitive binding model described by Tse and Boger[66] using eqn (4):[90]4 Kprobe[probe] = Kappc50where Kprobe is the binding constant of the probe, 9 × 10^5 and 5 × 10^6 M^−1 for MG[91] and DAPI,[92] respectively; [probe] is the concentration of probe used, 10 μM for both MG and DAPI; and c50 is the complex concentration when the fluorescence intensity of the probe is 50%. This value is obtained from the plot F0/F vs. [Q] when F0/F = 2.

[6] = complex concentration at 50% probe fluorescence, Table S9
[7] = ctDNA, DAPI competitive binding, Table S9
[8] = ctDNA, MG competitive binding, Table S9

## Cc1ccccc1.[Cl-].[Cl][Ru+]([PH](c1ccccc1)(c1ccccc1)c1ccccc1)[PH](c1ccccc1)(c1ccccc1)c1ccccc1 [Compound 11Cl, [Ru(η^6-toluene)(PPh3)2Cl]Cl]
L929
  selectivity for the breast cancer cell lines compared to the healthy ones: ~10 fold
L929; 24 h
  SI (selectivity index): 1.1
L929; 24 h exposure, read-out: IC50 (µM) (average ± standard deviation) 24 h L929
  IC50: 5.3 ± 0.7 µM
L929; 72 h
  SI (selectivity index): 11.8
L929; 72 h exposure, read-out: IC50 (μM) (average ± standard deviation) 72 h L929
  IC50: 0.87 ± 0.05 µM
[1]
  Conductivity (molar conductivity): 128 S·cm2/mol
pBR322 DNA; 37 °C, 24 h, ri 0.01–0.5
  stabilization of the linear form of plasmid DNA: did not induce the stabilization of the linear form
pBR322 DNA; all studied concentrations
  precipitation of DNA: no precipitation was observed
pBR322 DNA; ri = [11Cl]/[DNA bp], 37 °C, 24 h
  ri ratio from which alterations in the supercoiled structure (tailing, slight retardation) appear: ≥ 0.2
[2]
  identified ssDNA ions containing ruthenium: 43%
[3]
  identified dsDNA ions containing ruthenium: 23%
[4]; 10% d6-DMSO in D2O, pD 7.2, 72 h
  stability by NMR spectroscopy in neutral conditions: No signs of hydrolysis or decomposition were observed
[4]; 100% d6-DMSO, 72 h
  stability in DMSO (NMR): No changes were observed
[5]; BSA 16 μM, 37 °C, 24 h
  bimolecular quenching rate kq (BSA): 1.9e+12 M⁻¹ s⁻¹
  binding constant to BSA: 560000 M⁻¹
[5]; Table S8
  KSV (BSA): 1.13 ± 0.08 104 M−1
  kq (BSA): 1.88 ± 0.14 1012 M−1
  n (number of binding sites, BSA): 1.4
[5]; estimated value
  n (number of binding sites in BSA): ~1
ct-DNA; [6]
  C50, DAPI probe: 1.1 10−4 M
  C50, MG probe: 2.1 10−4 M
ct-DNA; [7]
  KSV, DAPI probe: 8.8 ± 0.6 103 M−1
  Kapp, DAPI probe: 4.4 ± 0.3 105 M−1
  kq, DAPI probe: 3.3 ± 0.3 1012 M−1
ct-DNA; [8]
  KSV, MG probe: 4.8 ± 0.7 103 M−1
  Kapp, MG probe: 0.43 ± 0.04 105 M−1
  kq, MG probe: 0.48 ± 0.07 1012 M−1
ct-DNA; ctDNA, probe PI
  quenching of PI (intercalator probe) fluorescence: no linear quenching was observed
ct-DNA; from difference of Kapp values
  preference towards the minor groove: 10 fold

— publication PMC10442743 (Dalton Transactions (Cambridge, England : 2003), 2023)
